Measured values as given in ChEMBL document CHEMBL1144249, “Identification of a novel class of androgen receptor antagonists based on the bicyclic-1H-isoindole-1,3(2H)-dione nucleus” (Bioorg Med Chem Lett, 2005).

Columns and labels:
Androgen receptor [1] = target: T1, Androgen receptor (Homo sapiens, UniProt P10275, T878A); test: Inhibition of [3H]-DHT binding to T877A androgen receptor of LNCaP cells
Androgen receptor [2] = target: T2, Androgen receptor (Homo sapiens, UniProt P10275); test: Inhibition of [3H]DHT binding to androgen receptor of MDA-453 cells
T2 sequence (P10275 whole entry): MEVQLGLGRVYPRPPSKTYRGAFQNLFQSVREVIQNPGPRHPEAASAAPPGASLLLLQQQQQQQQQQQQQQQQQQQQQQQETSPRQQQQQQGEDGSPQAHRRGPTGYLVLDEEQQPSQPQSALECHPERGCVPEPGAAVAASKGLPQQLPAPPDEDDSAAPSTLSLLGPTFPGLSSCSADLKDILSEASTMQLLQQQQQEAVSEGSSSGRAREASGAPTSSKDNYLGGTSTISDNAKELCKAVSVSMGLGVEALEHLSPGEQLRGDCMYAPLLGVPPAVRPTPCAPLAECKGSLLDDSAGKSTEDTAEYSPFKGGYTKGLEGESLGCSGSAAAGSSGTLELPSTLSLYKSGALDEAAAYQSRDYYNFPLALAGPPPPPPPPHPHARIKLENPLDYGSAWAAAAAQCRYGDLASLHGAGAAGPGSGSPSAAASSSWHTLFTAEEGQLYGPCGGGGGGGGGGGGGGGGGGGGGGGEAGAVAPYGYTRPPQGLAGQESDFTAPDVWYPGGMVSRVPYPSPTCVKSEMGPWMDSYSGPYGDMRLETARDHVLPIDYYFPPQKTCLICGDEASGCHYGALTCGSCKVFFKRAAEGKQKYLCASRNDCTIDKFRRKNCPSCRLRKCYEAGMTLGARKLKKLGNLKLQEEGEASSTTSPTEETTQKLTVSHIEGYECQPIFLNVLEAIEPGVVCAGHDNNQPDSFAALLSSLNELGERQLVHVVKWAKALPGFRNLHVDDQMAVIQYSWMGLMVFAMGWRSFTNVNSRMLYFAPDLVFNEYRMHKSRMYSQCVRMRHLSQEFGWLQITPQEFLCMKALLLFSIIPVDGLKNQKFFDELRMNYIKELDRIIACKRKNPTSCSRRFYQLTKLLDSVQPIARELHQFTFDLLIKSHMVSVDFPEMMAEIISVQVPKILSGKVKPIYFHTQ

Androgen receptor [3] = target: T2, Androgen receptor
Description: Inhibition of human androgen receptor of breast carcinoma MDA-453 cells in reporter gene assay

Androgen receptor [4] = target: T1, Androgen receptor
Description: Inhibition of T877A androgen receptor of human prostate cancer cells in reporter gene assay

Androgen receptor [5] = target: T1, Androgen receptor; test: Activation of T877A androgen receptor of human prostate cancer LNCap cells in reporter gene assay; type: functional, cell-based
Androgen receptor [6] = target: Androgen receptor (Homo sapiens, UniProt P10275, L702H/T878A); type: functional, cell-based; conditions: mdamb-pca2b
Sequence of Androgen receptor (Homo sapiens, UniProt P10275, L702H/T878A) (P10275 whole entry L702H/T878A): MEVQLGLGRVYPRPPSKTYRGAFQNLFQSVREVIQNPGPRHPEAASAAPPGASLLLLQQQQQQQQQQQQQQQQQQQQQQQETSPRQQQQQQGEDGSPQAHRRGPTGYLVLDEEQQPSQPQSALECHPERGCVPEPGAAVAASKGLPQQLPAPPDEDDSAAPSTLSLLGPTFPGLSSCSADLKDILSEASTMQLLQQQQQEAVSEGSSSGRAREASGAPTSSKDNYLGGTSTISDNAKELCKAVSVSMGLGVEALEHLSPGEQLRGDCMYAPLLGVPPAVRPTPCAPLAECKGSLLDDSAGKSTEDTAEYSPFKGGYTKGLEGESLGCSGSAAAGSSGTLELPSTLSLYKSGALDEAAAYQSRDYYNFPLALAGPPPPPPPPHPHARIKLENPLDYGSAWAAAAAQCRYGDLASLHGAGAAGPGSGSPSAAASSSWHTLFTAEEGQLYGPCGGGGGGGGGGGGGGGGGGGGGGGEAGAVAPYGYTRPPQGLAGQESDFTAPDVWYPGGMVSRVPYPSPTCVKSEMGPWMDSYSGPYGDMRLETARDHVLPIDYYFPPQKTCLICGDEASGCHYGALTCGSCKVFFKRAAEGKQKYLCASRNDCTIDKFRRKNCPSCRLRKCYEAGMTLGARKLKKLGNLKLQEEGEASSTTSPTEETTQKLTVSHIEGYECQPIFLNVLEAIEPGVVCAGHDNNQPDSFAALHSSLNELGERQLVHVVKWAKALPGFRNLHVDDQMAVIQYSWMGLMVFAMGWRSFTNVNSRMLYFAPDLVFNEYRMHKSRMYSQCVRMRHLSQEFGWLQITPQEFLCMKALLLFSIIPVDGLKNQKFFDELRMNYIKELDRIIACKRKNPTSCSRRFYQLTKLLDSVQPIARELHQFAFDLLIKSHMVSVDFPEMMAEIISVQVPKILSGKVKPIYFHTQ

T1 sequence (P10275 whole entry T878A): as the sequence (P10275 whole entry L702H/T878A) above, with H702L counted along it

SMILES | Ki (Androgen receptor [1]) [nM] | Ki (Androgen receptor [2]) [nM] | IC50 (Androgen receptor [3]) [nM] | IC50 (Androgen receptor [4]) [nM] | Ki (Androgen receptor [1]; lncap) [nM] | Agonist activity (qualitative) (Androgen receptor [5]) | IC50 (Androgen receptor [6]) | IC50 (Androgen receptor [5])
O=C1[C@@H]2C3C=CC(C3)[C@@H]2C(=O)N1c1cc(C(F)(F)F)cc(C(F)(F)F)c1 | 24 | 401 | 1750 | 72 | – | – | – | –
O=C1[C@@H]2C3CCC(C3)[C@@H]2C(=O)N1c1ccc2ccccc2c1 | 11 | – | 1200 | 84 | – | – | – | –
O=C1[C@@H]2C3C=CC(C3)[C@@H]2C(=O)N1c1ccc2cccnc2c1 | 13 | – | 1040 | 52 | – | – | – | –
Cc1ccc(N2C(=O)[C@@H]3C4C=CC(C4)[C@@H]3C2=O)cc1C | 3.4 | 400 | 2010 | 10 | – | – | – | –
O=C1[C@@H]2C3CCC(C3)[C@@H]2C(=O)N1c1cccc(C(F)(F)F)c1 (stereo in doubt; 13) | 2 | – | 317 | 12 | – | – | – | –
O=C1[C@@H]2C3C=CC(C3)[C@@H]2C(=O)N1c1ccc([N+](=O)[O-])cc1 | 12 | 192 | 664 | 30 | – | – | – | –
O=C1[C@@H]2C3C=CC(C3)[C@@H]2C(=O)N1c1ccc2ccccc2c1 | 11 | 284 | 1210 | 84 | – | – | – | –
O=C1[C@@H]2C3CCC(C3)[C@@H]2C(=O)N1c1ccc([N+](=O)[O-])c(C(F)(F)F)c1 (stereo in doubt; 16) | – | – | – | – | 2 | – | – | –
O=C1[C@@H]2C3C=CC(C3)[C@@H]2C(=O)N1c1ccc(F)c(Cl)c1 | 2 | – | 517 | 33 | – | – | – | –
O=C1[C@@H]2C3CCC(C3)[C@@H]2C(=O)N1c1ccc([N+](=O)[O-])c(C(F)(F)F)c1 (stereo in doubt; 15) | 2 | 5 | 12 | – | – | Agonist | Agonist | –
O=C1[C@@H]2C3C=CC(C3)[C@@H]2C(=O)N1c1cc(Cl)cc(Cl)c1 | 6 | 158 | 307 | 41 | – | – | – | –
Cc1cc(N2C(=O)[C@@H]3C4C=CC(C4)[C@@H]3C2=O)ccc1Br | 3.6 | 125 | 220 | – | – | Agonist | Agonist | –
O=C1[C@@H]2C3C=CC(C3)[C@@H]2C(=O)N1c1ccc([N+](=O)[O-])c(C(F)(F)F)c1 | 5 | 55 | 119 | – | – | Agonist | Agonist | –
O=C1[C@@H]2C3C=CC(C3)[C@@H]2C(=O)N1c1ccc([N+](=O)[O-])c2ccccc12 | 0.5 | 1 | > 5 | – | – | Agonist | Agonist | –
CC(C)(O)C(=O)Nc1ccc([N+](=O)[O-])c(C(F)(F)F)c1 [HYDROXYFLUTAMIDE] | – | – | – | – | – | – | Agonist | Agonist
O=C1[C@@H]2C3C=CC(C3)[C@@H]2C(=O)N1c1cccc(C(F)(F)F)c1 | 7 | 632 | 744 | 35 | – | – | – | –
O=C1[C@@H]2C3CCC(C3)[C@@H]2C(=O)N1c1cccc(C(F)(F)F)c1 (stereo in doubt; 12) | 3.4 | 319 | 127 | 7 | – | – | – | –
O=C1[C@@H]2C3C=CC(C3)[C@@H]2C(=O)N1c1ccc(Br)c(C(F)(F)F)c1 | 0.6 | 46 | 146 | – | – | Agonist | Agonist | –
O=C1[C@@H]2C3C=CC(C3)[C@@H]2C(=O)N1c1ccc(O)c2ncccc12 | 32 | 162 | 418 | 1790 | – | – | – | –
